Measurements published in patent US8354410B2 (Bristol-Meyers Squibb Company, priority 2010, dated 2013).

Tests used:
HCV replicon = HCV replicon assay (FRET / luciferase reporter); type: cell-based, HCV (HUH-7 cells); conditions: Hepatitis C virus; HCV replicon cells
Text: FRET Assay Preparation. To perform the HCV FRET screening assay, 96-well cell culture plates were used. The FRET peptide (Anaspec, Inc.) (Taliani et al., Anal. Biochem. 1996, 240, 60-67) contains a fluorescence donor, EDANS, near one end of the peptide and an acceptor, DABCYL, near the other end. The fluorescence of the peptide is quenched by […] resonance energy transfer (RET) between the donor and the acceptor, but as the NS3 protease cleaves the peptide the products are released from RET quenching and the fluorescence of the donor becomes apparent. The assay reagent was made as follows: 5× cell Luciferase cell culture lysis reagent from Promega (#E153A) diluted to 1× with dH2O, NaCl added to 150 mM final, the FRET peptide diluted to 20 μM final from a 2 mM stock.
To prepare plates, HCV replicon cells, with or without a Renilla luciferase reporter gene, were trypsinized and placed into each well of a 96-well plate with titrated test compounds added in columns 3 through 12; columns 1 and 2 contained a control compound (HCV protease inhibitor), and the bottom row contained cells without compound. The plates were then placed in a CO2 incubator at 37° C.
Assays. Subsequent to addition of the test compounds described above (FRET Assay Preparation), at various times the plate was removed and Alamar blue solution (Trek Diagnostics, #00-100) was added per well as a measure of cellular toxicity. After reading in a Cytoflour 4000 instrument (PE Biosystems), plates were rinsed with PBS and then used for FRET assay by the addition of 30 ul of the FRET peptide assay reagent described above (FRET Assay Preparation) per well. The plate was then placed into the Cytoflour 4000 instrument which had been set to 340 excite/490 emission, automatic mode for 20 cycles and the plate read in a kinetic mode. Typically, the signal to noise using an endpoint analysis after the reads was at least three-fold. Alternatively, after Alamar blue reading, plates were rinsed with PBS, 50 ul of DMEM (high glucose) without phenol red was added and plates were then used for luciferase assay using the Promega Dual-Glo Luciferase Assay System.
Compound analysis was determined by quantification of the relative HCV replicon inhibition and the relative cytotoxicity values. To calculate cytoxicity values, the average Alamar Blue fluorescence signals from the control wells were set as 100% non-toxic. The individual signals in each of the compound test wells were then divided by the average control signal and multiplied by 100% to determine […]. To calculate the HCV replicon inhibition values, an average background value was obtained from the two wells containing the highest amount of HCV protease inhibitor at the end of the assay period. These numbers were similar to those obtained from naïve Huh-7 cells.
The background numbers were then subtracted from the average signal obtained from the control wells and this number was used as 100% activity. The individual signals in each of the compound test wells were then divided by the averaged control values after background subtraction and multiplied by 100% to determine percent activity. EC50 values for a protease inhibitor titration were calculated as the concentration which caused a 50% reduction in FRET or luciferase activity. The two numbers generated for the compound plate, percent cytoxicity and percent activity were used to determine compounds of interest for further analysis.
The HCV replicon luciferase assay was developed to monitor the inhibitory effects of compounds described in the disclosure on HCV viral replication. Utilization of a replicon luciferase reporter assay was first described by Krieger et al (Krieger N, Lohmann V, and Bartenschlager R, J. Virol. 75(10):4614-4624 (2001)). HUH-7 cells, constitutively expressing the HCV replicon, were grown in Dulbecco's Modified Eagle Media (DMEM) (Gibco-BRL) containing 10% Fetal calf serum (FCS) (Sigma) and 1 mg/ml G418 (Gibco-BRL). […]

HCV NS5B = target: T1, HCV NS5B (Hepatitis C virus genotype 1b, UniProt Q9WMX2); experiment: HCV NS5B RdRp enzyme assay; type: biochemical; conditions: HCV NS5B RdRp genotype 1b; standard or modified assay not specified
T1 construct: The protein was expressed with an 18 amino acid C-terminal truncation to enhance the solubility; made in house; host or cells: E. coli BL21(DE3)
Description: HCV NS5B RdRp cloning, expression, and purification. The cDNA encoding the NS5B protein of HCV, genotype 1b, was cloned into the pET21a expression vector. The protein was expressed with an 18 amino acid C-terminal truncation to enhance the solubility. The E. coli competent cell line BL21(DE3) was used for expression of the protein. Cultures were grown at 37° C. for ˜4 hours until the cultures reached an optical density of 2.0 at 600 nm. The cultures were cooled to 20° C. and induced with 1 mM IPTG. Fresh ampicillin was added to a final concentration of 50 μg/ml and the cells were grown overnight at 20° C.
Cell pellets (3 L) were lysed for purification to yield 15-24 mgs of purified NS5B. The lysis buffer consisted of 20 mM Tris-HCl, pH 7.4, 500 mM NaCl, 0.5% triton X-100, 1 mM DTT, 1 mM EDTA, 20% glycerol, 0.5 mg/ml lysozyme, 10 mM MgCl2, 15 ug/ml deoxyribonuclease I, and Complete TM protease inhibitor tablets (Roche). After addition of the lysis buffer, frozen cell pellets were resuspended using a tissue homogenizer. To reduce the viscosity of the sample, aliquots of the lysate were sonicated on ice using a microtip attached to a Branson sonicator. The sonicated lysate was centrifuged at 100,000×g for 1 hr at 4° C. and filtered through a 0.2 μm filter unit (Corning).
The protein was purified using three sequential chromatography steps: Heparin sepharose CL-6B, polyU sepharose 4B, and Hitrap SP sepharose (Pharmacia). The chromatography buffers were identical to the lysis buffer but contained no lysozyme, deoxyribonuclease I, MgCl2 or protease inhibitor and the NaCl concentration of the buffer was adjusted according to the requirements for charging the protein onto the column. Each column was eluted with a NaCl gradient which varied in length from 5-50 column volumes depending on the column type. After the final chromatography step, the resulting purity of the enzyme is >90% based on SDS-PAGE analysis. The enzyme was aliquoted and stored at −80° C.
Standard HCV NS5B RdRp enzyme assay. HCV RdRp genotype 1b assays were run in a final volume of 60 μl in 96 well plates (Costar 3912). The assay buffer is composed of 20 mM Hepes, pH 7.5, 2.5 mM KCl, 2.5 mM MgCl2, 1 mM DTT, 1.6 U RNAse inhibitor (Promega N2515), 0.1 mg/ml BSA (Promega R3961), and 2% glycerol. All compounds were serially diluted (3-fold) in DMSO and diluted further in water such that the final concentration of DMSO in the assay was 2%. HCV RdRp genotype 1b enzyme was used at a final concentration of 28 nM. A polyA template was used at 6 nM, and a biotinylated oligo-dT12 primer was used at 180 nM final concentration. Template was obtained commercially (Amersham 27-4110). Biotinylated primer was prepared by Sigma Genosys. 3H-UTP was used at 0.6 μCi (0.29 μM total UTP). Reactions were initiated by the addition of enzyme, incubated at 30° C. for 60 min, and stopped by adding 25 μl of 50 mM EDTA containing SPA beads (4 μg/μl, Amersham RPNQ 0007). Plates were read on a Packard Top Count NXT after >1 hr incubation at room temperature.
Modified HCV NS5B RdRp enzyme assay. A modified enzyme assay was performed essentially as described for the standard enzyme assay except for the following: The biotinylated oligo dT12 primer was precaptured on streptavidin-coated SPA beads by mixing primer and beads in assay buffer and incubating at room temperature for one hour. Unbound primer was removed after centrifugation. The primer-bound beads were resuspended in 20 mM Hepes buffer, pH 7.5 and used in the assay at final concentrations of 20 nM primer and 0.67 μg/μl beads. Order of addition in the assay: enzyme (14 nM) was added to diluted compound followed by the addition of a mixture of template (0.2 nM), 3H-UTP (0.6 μCi, 0.29 μM), and primer-bound beads, to initiate the reaction; concentrations given are final. Reactions were allowed to proceed for 4 hours at 30° C.
IC50 values for compounds were determined using seven different [I]. […]

T1 sequence (Q9WMX2 2420-2992): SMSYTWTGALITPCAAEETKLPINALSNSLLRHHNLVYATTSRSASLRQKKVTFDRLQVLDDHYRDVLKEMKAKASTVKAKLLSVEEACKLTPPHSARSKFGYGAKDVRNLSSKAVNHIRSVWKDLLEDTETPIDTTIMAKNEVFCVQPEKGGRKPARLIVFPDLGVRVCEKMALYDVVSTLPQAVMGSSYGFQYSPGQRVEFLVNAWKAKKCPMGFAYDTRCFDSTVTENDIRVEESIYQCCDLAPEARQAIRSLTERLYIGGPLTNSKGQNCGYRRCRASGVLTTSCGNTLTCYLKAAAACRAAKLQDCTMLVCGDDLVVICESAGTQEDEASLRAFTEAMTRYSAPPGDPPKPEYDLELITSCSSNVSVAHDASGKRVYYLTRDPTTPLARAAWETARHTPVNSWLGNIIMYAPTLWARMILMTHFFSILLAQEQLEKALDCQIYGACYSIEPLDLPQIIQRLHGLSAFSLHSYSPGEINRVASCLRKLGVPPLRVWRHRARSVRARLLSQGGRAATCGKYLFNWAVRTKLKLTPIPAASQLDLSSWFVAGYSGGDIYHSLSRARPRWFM

| SMILES | EC50 (HCV replicon) | IC50 (HCV NS5B) |
| --- | --- | --- |
| CNC(=O)c1c(-c2ccc(F)cc2)oc2ccc(-c3cc(C(=O)NC4(c5ncc6cnccc6n5)CC4)ccc3C)c(F)c12 | 20 nM | 6 nM |
| CNC(=O)c1c(-c2ccc(F)cc2)oc2ccc(-c3cc(C(=O)NC4(c5nc6cnccc6o5)CC4)cc(F)c3C)cc12 [5-(3-fluoro-2-methyl-5-(1-(oxazolo[4,5-c]pyridin-2-yl)cyclopropylcarbamoyl)phenyl)-2-(4-fluorophenyl)-N-methylbenzofuran-3-carboxamide] | 3 nM | 20 nM |
| CNC(=O)c1c(-c2ccc(F)cc2)oc2ccc(-c3cc(C(=O)NC4(c5ccc6[nH]ccc6n5)CC4)ccc3C)c(F)c12 | 7 nM | 20 nM |
| CNC(=O)c1c(-c2ccc(F)cc2)oc2ccc(-c3cc(C(=O)NC4(c5ccc6ccncc6n5)CC4)c(OC)cc3OCC(N)=O)cc12 | 4 nM | 5 nM |
| CNC(=O)c1c(-c2ccc(F)cc2)oc2ccc(-c3cc(C(=O)NC4(c5nc6cnccc6o5)CC4)ccc3C)cc12 | 1 nM | 20 nM |
| CNC(=O)c1c(-c2ccc(F)cc2)oc2ccc(-c3cc(C(=O)NC4(c5nc6cnccc6o5)CC4)ccc3C)c(F)c12 | 4 nM | 20 nM |
| CNC(=O)c1c(-c2ccc(F)cc2)oc2ccc(-c3cc(C(=O)NC4(c5nc6cnccc6o5)CC4)c(OC)cc3C)c(F)c12 | 1 nM | 40 nM |
| CNC(=O)c1c(-c2ccc(F)cc2)oc2ccc(-c3cc(C(=O)NC4(c5ccc6ccncc6n5)CC4)ccc3C)c(F)c12 | 6 nM | 20 nM |
| CNC(=O)c1c(-c2ccc(F)cc2)oc2ccc(-c3cc(C(=O)NC4(c5ccc6cnccc6n5)CC4)cc(F)c3C)c(F)c12 | 6 nM | 7 nM |
| CNC(=O)c1c(-c2ccc(F)cc2)oc2ccc(-c3cc(C(=O)NC4(c5ccc6cnccc6n5)CC4)ccc3C)cc12 | 2 nM | 8 nM |
| CNC(=O)c1c(-c2ccc(F)cc2)oc2ccc(-c3cc(C(=O)NC4(c5nccc6[nH]ccc56)CC4)ccc3C)c(F)c12 | 60 nM |  |
| CNC(=O)c1c(-c2ccc(F)cc2)oc2ccc(-c3cc(C(=O)NC4(c5nc6ccncc6o5)CC4)c(OC)cc3C)c(F)c12 [4-fluoro-2-(4-fluorophenyl)-5-(4-methoxy-2-methyl-5-(1-(oxazolo[5,4-c]pyridin-2-yl)cyclopropylcarbamoyl)phenyl)-N-methylbenzofuran-3-carboxamide] | 4 nM | 20 nM |
| CNC(=O)c1c(-c2ccc(F)cc2)oc2ccc(-c3cc(C(=O)N[C@@H](C)c4nc5cnccc5o4)c(OC)cc3C)c(F)c12 | 20 nM | 60 nM |
| CNC(=O)c1c(-c2ccc(F)cc2)oc2ccc(-c3cc(C(=O)NC4(c5nc6cnccc6o5)CC4)cc(F)c3C)c(F)c12 [4-fluoro-5-(3-fluoro-2-methyl-5-(1-(oxazolo[4,5-c]pyridin-2-yl)cyclopropylcarbamoyl)phenyl)-2-(4-fluorophenyl)-N-methylbenzofuran-3-carboxamide] | 6 nM | 20 nM |
| CNC(=O)c1c(-c2ccc(F)cc2)oc2ccc(-c3cc(C(=O)NC4(c5nc6cnccc6o5)CC4)c(OC)cc3C)cc12 | 1 nM | 10 nM |
| CNC(=O)c1c(-c2ccc(F)cc2)oc2ccc(-c3cc(C(=O)NC4(c5ccc6ccncc6n5)CC4)c(OC)cc3C)c(F)c12 [5-(5-(1-(1,7-naphthyridin-2-yl)cyclopropylcarbamoyl)-4-methoxy-2-methylphenyl)-4-fluoro-2-(4-fluorophenyl)-N-methylbenzofuran-3-carboxamide] | 6 nM | 30 nM |
| CNC(=O)c1c(-c2ccc(F)cc2)oc2ccc(-c3cc(C(=O)NC4(c5ccc6cnccc6n5)CC4)c(OC)cc3C)c(F)c12 [5-(5-(1-(1,6-naphthyridin-2-yl)cyclopropylcarbamoyl)-4-methoxy-2-methylphenyl)-4-fluoro-2-(4-fluorophenyl)-N-methylbenzofuran-3-carboxamide] | 9 nM | 100 nM |
